Laboratory results from ChEMBL document CHEMBL1140990, “Evaluation of alpha,beta-unsaturated ketone-based probes for papain-family cysteine proteases” (Bioorg Med Chem, 2009).
The source made the active and inactive calls. The calls are words filed in the database; no cut-off is given here.

Experiments:
[1] = target: Cathepsin B (Homo sapiens) (UniProt P07858); assay: Inhibition of human recombinant cathepsin B
[2] = target: Procathepsin L (Homo sapiens) (UniProt P07711); assay: Inhibition of human recombinant cathepsin L
Sequence of Procathepsin L (Homo sapiens) (P07711 114-333 limits assumed): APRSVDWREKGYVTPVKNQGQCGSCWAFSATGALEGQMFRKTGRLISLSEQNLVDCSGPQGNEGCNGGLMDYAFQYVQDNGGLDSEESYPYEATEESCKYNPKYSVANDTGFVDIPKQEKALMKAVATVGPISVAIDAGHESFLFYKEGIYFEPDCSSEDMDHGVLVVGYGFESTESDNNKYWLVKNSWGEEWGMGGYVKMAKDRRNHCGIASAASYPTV

[3] = target: Cathepsin B (Mus musculus) (UniProt P10605); assay: Binding affinity to cathepsin B in mouse spleen crude extracts at 500 nM; assay type: tissue-based
Sequence of Cathepsin B (Mus musculus) (P10605 80-333 limits assumed): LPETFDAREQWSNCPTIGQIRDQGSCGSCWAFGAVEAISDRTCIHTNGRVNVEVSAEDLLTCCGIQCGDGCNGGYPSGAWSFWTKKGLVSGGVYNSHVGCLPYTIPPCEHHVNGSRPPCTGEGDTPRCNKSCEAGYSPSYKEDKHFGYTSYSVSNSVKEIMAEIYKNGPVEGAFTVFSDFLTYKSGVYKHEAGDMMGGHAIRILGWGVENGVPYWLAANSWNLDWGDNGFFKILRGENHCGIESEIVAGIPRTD

[4] = target: Cathepsin B (Homo sapiens) (UniProt P07858); assay: Binding affinity to cathepsin B in human MDA-MB-231 cell lysates; assay type: cell-free
[5] = target: Cathepsin B (Mus musculus) (UniProt P10605); assay: Binding affinity to cathepsin B in wild type mouse NIH/3T3 cells; assay type: cell-based; settings: NIH3T3
[6] = target: T1, Procathepsin L (Mus musculus) (UniProt P06797); assay: Binding affinity to cathepsin L in wild type mouse NIH/3T3 cells; assay type: cell-based; settings: NIH3T3
T1 sequence (whole entry): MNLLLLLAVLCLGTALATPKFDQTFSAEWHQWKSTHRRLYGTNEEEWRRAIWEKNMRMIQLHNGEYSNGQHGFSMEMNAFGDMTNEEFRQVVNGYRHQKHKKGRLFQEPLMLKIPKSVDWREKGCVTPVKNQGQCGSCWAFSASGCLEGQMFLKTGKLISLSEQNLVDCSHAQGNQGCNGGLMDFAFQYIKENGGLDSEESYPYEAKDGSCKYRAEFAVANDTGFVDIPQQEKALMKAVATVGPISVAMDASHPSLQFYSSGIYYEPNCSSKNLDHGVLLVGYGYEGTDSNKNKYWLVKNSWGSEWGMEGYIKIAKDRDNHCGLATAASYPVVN

[7] = target: Cathepsin B (Mus musculus) (UniProt P10605); assay: Binding affinity to cathepsin B in mouse spleen crude extracts; assay type: tissue-based

## CC(=O)/C=C/[C@H](C)NC(=O)[C@H](Cc1ccccc1)NC(=O)OCc1ccccc1
[1]
  Activity: 36700 M⁻¹ s⁻¹
[2]
  Activity: 1.63e+06 M⁻¹ s⁻¹

## CC(=O)/C=C/[C@H](C)NC(=O)[C@H](Cc1ccccc1)NC(=O)CCOCCOCCOCCOCCNC(=O)CCCC[C@H]1SC[C@H]2NC(=O)N[C@H]21
[3]
  Activity: Active
[4]
  Activity: Active

## COc1ccc(-c2ccc3n2[B-](F)(F)[N+]2=C(C)C(CCC(=O)NCCCCCC(=O)N[C@@H](Cc4ccccc4)C(=O)N[C@@H](C)/C=C/C(C)=O)=C(C)C2=C3)cc1
[5]
  Activity: Active
[6]
  Activity: Active
[7]
  Activity: Active
[3]
  Activity: Active
